Test results as given in ChEMBL document CHEMBL1201862, “PubChem BioAssay data set” (2004).
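Grown in 96-well plates, cells were treated for 48 hours with each compound at five concentrations. Insufficient inhibition: endpoint recorded as highest concentration tested. Abbreviation: GI50, concentration required for 50% inhibition of growth.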 Active and inactive are the calls of the source. Rule as the data show it: active = GI50 up to about 1.1 µM and inactive = higher.

Legend:
Experiment in all cases: NCI-60 cell line screen, 48 h
SNB-19 = test system: SNB-19
HCT-15 = test system: HCT-15
NCI-H23 = test system: NCI-H23
LOX IMVI = test system: LOX IMVI
CAKI-1 = test system: CAKI-1
SR = test system: SR
SK-MEL-2 = test system: SK-MEL-2
RPMI-8226 = test system: RPMI-8226
SN12C = test system: SN12C
HCC 2998 = test system: HCC 2998
T47D = test system: T47D
OVCAR-8 = test system: OVCAR-8
NCI-H522 = test system: NCI-H522
UACC-257 = test system: UACC-257
OVCAR-4 = test system: OVCAR-4
SK-OV-3 = test system: SK-OV-3
NCI/ADR-RES = test system: NCI/ADR-RES
ACHN = test system: ACHN
HCT-116 = test system: HCT-116
MDA-MB-435 = test system: MDA-MB-435

O=S(=O)([N-]c1nc2ccccc2nc1-[n+]1ccccc1)c1ccccc1
GI50 (SNB-19): > 100 µM (inactive)
GI50 (HCT-15): > 100 µM
GI50 (NCI-H23): 67.8 µM (inactive)
GI50 (LOX IMVI): > 100 µM (inactive)
GI50 (CAKI-1): > 100 µM (inactive)
GI50 (SR): 14.9 µM (inactive)
GI50 (SK-MEL-2): > 100 µM (inactive)
GI50 (RPMI-8226): 74 µM (inactive)
GI50 (SN12C): > 100 µM (inactive)
GI50 (HCC 2998): > 100 µM (inactive)
GI50 (T47D): 81.8 µM (inactive)
GI50 (OVCAR-8): 68.5 µM (inactive)
GI50 (NCI-H522): > 100 µM (inactive)
GI50 (UACC-257): > 100 µM (inactive)
GI50 (OVCAR-4): > 100 µM (inactive)
GI50 (SK-OV-3): > 100 µM (inactive)
GI50 (NCI/ADR-RES): > 100 µM (inactive)
GI50 (ACHN): > 100 µM (inactive)
GI50 (HCT-116): > 100 µM (inactive)

NC(=O)CN1CCN(c2nc(N3CCCC3)c3nc(Cl)c(NCc4ccccc4)nc3n2)CC1
GI50 (SNB-19): 9.89 µM (inactive)
GI50 (HCT-15): 8.67 µM
GI50 (NCI-H23): 13.7 µM (inactive)
GI50 (LOX IMVI): 9.33 µM (inactive)
GI50 (CAKI-1): 17 µM (inactive)
GI50 (SK-MEL-2): 9.66 µM (inactive)
GI50 (RPMI-8226): 9.89 µM (inactive)
GI50 (SN12C): 9.48 µM (inactive)
GI50 (HCC 2998): 8.38 µM (inactive)
GI50 (T47D): 7.89 µM (inactive)
GI50 (OVCAR-8): 15 µM (inactive)
GI50 (NCI-H522): 10.4 µM (inactive)
GI50 (UACC-257): 9.98 µM (inactive)
GI50 (OVCAR-4): 16 µM (inactive)
GI50 (SK-OV-3): 9.91 µM (inactive)
GI50 (MDA-MB-435): 10 µM (inactive)
GI50 (NCI/ADR-RES): 14 µM (inactive)
GI50 (ACHN): 12.4 µM (inactive)
GI50 (HCT-116): 8 µM (inactive)

COc1ccc(/N=N/C(=N/NC(=O)c2cc(Cl)ccc2C(=O)c2ccccc2)c2ccc(N(CCC#N)CCC#N)cc2C)cc1
GI50 (SNB-19): 25.9 µM (inactive)
GI50 (HCT-15): 13.9 µM
GI50 (NCI-H23): 18 µM (inactive)
GI50 (CAKI-1): 21.3 µM (inactive)
GI50 (SK-MEL-2): 6.9 µM (inactive)
GI50 (RPMI-8226): 9.35 µM (inactive)
GI50 (SN12C): 14.6 µM (inactive)
GI50 (HCC 2998): 18.9 µM (inactive)
GI50 (T47D): 15 µM (inactive)
GI50 (OVCAR-8): 16.1 µM (inactive)
GI50 (UACC-257): 27.7 µM (inactive)
GI50 (OVCAR-4): 21.4 µM (inactive)
GI50 (SK-OV-3): 24.4 µM (inactive)
GI50 (MDA-MB-435): 27.6 µM (inactive)
GI50 (NCI/ADR-RES): 16.7 µM (inactive)
GI50 (ACHN): 25.6 µM (inactive)
GI50 (HCT-116): 13.1 µM (inactive)

COc1ccc(/C=N/n2c(C)n[nH]c2=O)c(OC)c1
GI50 (SNB-19): > 100 µM (inactive)
GI50 (HCT-15): > 100 µM
GI50 (NCI-H23): > 100 µM (inactive)
GI50 (CAKI-1): > 100 µM (inactive)
GI50 (SK-MEL-2): > 100 µM (inactive)
GI50 (RPMI-8226): > 100 µM (inactive)
GI50 (SN12C): > 100 µM (inactive)
GI50 (HCC 2998): > 100 µM (inactive)
GI50 (T47D): > 100 µM (inactive)
GI50 (OVCAR-8): > 100 µM (inactive)
GI50 (UACC-257): > 100 µM (inactive)
GI50 (OVCAR-4): > 100 µM (inactive)
GI50 (SK-OV-3): > 100 µM (inactive)
GI50 (MDA-MB-435): 90.4 µM (inactive)
GI50 (NCI/ADR-RES): > 100 µM (inactive)
GI50 (ACHN): > 100 µM (inactive)
GI50 (HCT-116): > 100 µM (inactive)

O=C(Nc1ccc2[nH]c(C(=O)N3CC(CCl)c4ccc([N+](=O)[O-])cc43)cc2c1)c1cc2ccccc2o1 (stereo not drawn)
GI50 (SNB-19): > 1100 µM (inactive)
GI50 (HCT-15): > 1100 µM
GI50 (NCI-H23): > 1100 µM (inactive)
GI50 (LOX IMVI): > 1100 µM (inactive)
GI50 (CAKI-1): > 1100 µM (inactive)
GI50 (SK-MEL-2): > 1100 µM (inactive)
GI50 (RPMI-8226): > 1100 µM (inactive)
GI50 (SN12C): > 1100 µM (inactive)
GI50 (HCC 2998): > 1100 µM (inactive)
GI50 (T47D): > 1100 µM (inactive)
GI50 (OVCAR-8): > 1100 µM (inactive)
GI50 (NCI-H522): 258 µM (inactive)
GI50 (UACC-257): > 1100 µM (inactive)
GI50 (OVCAR-4): > 1100 µM (inactive)
GI50 (SK-OV-3): > 1100 µM (inactive)
GI50 (MDA-MB-435): > 1100 µM (inactive)
GI50 (NCI/ADR-RES): > 1100 µM (inactive)
GI50 (HCT-116): > 1100 µM (inactive)

CNc1nc(C(N)=O)c(N)s1
GI50 (SNB-19): > 100 µM (inactive)
GI50 (HCT-15): > 100 µM
GI50 (NCI-H23): > 100 µM (inactive)
GI50 (LOX IMVI): > 100 µM (inactive)
GI50 (CAKI-1): > 100 µM (inactive)
GI50 (SK-MEL-2): > 100 µM (inactive)
GI50 (RPMI-8226): > 100 µM (inactive)
GI50 (SN12C): > 100 µM (inactive)
GI50 (T47D): > 100 µM (inactive)
GI50 (OVCAR-8): > 100 µM (inactive)
GI50 (NCI-H522): > 100 µM (inactive)
GI50 (UACC-257): > 100 µM (inactive)
GI50 (OVCAR-4): > 100 µM (inactive)
GI50 (SK-OV-3): > 100 µM (inactive)
GI50 (MDA-MB-435): > 100 µM (inactive)
GI50 (NCI/ADR-RES): > 100 µM (inactive)
GI50 (ACHN): > 100 µM (inactive)
GI50 (HCT-116): > 100 µM (inactive)

CC1CC(=O)Nc2cc(Cl)ccc2N1C(=O)C1CC1 (stereo not drawn)
GI50 (SNB-19): > 100 µM (inactive)
GI50 (HCT-15): > 100 µM
GI50 (NCI-H23): > 100 µM (inactive)
GI50 (LOX IMVI): > 100 µM (inactive)
GI50 (CAKI-1): > 100 µM (inactive)
GI50 (SK-MEL-2): > 100 µM (inactive)
GI50 (RPMI-8226): > 100 µM (inactive)
GI50 (SN12C): > 100 µM (inactive)
GI50 (HCC 2998): > 100 µM (inactive)
GI50 (T47D): > 100 µM (inactive)
GI50 (OVCAR-8): > 100 µM (inactive)
GI50 (NCI-H522): > 100 µM (inactive)
GI50 (UACC-257): > 100 µM (inactive)
GI50 (OVCAR-4): > 100 µM (inactive)
GI50 (SK-OV-3): > 100 µM (inactive)
GI50 (MDA-MB-435): > 100 µM (inactive)
GI50 (ACHN): > 100 µM (inactive)
GI50 (HCT-116): > 100 µM (inactive)

Cc1ccc2nc3c(=O)[nH]c(=O)nc-3n(C)c2c1C
GI50 (SNB-19): > 100 µM (inactive)
GI50 (HCT-15): > 100 µM
GI50 (NCI-H23): > 100 µM (inactive)
GI50 (LOX IMVI): > 100 µM (inactive)
GI50 (CAKI-1): > 100 µM (inactive)
GI50 (SK-MEL-2): > 100 µM (inactive)
GI50 (RPMI-8226): > 100 µM (inactive)
GI50 (SN12C): > 100 µM (inactive)
GI50 (HCC 2998): > 100 µM (inactive)
GI50 (T47D): > 100 µM (inactive)
GI50 (OVCAR-8): > 100 µM (inactive)
GI50 (NCI-H522): > 100 µM (inactive)
GI50 (UACC-257): > 100 µM (inactive)
GI50 (OVCAR-4): > 100 µM (inactive)
GI50 (SK-OV-3): > 100 µM (inactive)
GI50 (MDA-MB-435): > 100 µM (inactive)
GI50 (NCI/ADR-RES): > 100 µM (inactive)
GI50 (ACHN): > 100 µM (inactive)
GI50 (HCT-116): > 100 µM (inactive)

CN(Cc1cnc2nc(N)nc(N)c2n1)c1ccc(C(=O)N[C@@H](CCS(=O)(=O)O)C(=O)O)cc1
GI50 (SNB-19): 0.582 µM (active)
GI50 (HCT-15): 0.0514 µM
GI50 (NCI-H23): 0.458 µM (active)
GI50 (LOX IMVI): 0.0526 µM (active)
GI50 (CAKI-1): > 100 µM (inactive)
GI50 (SR): 0.0755 µM (active)
GI50 (SK-MEL-2): > 100 µM (inactive)
GI50 (SN12C): > 100 µM (inactive)
GI50 (HCC 2998): 0.61 µM (active)
GI50 (T47D): > 100 µM (inactive)
GI50 (OVCAR-8): 21.8 µM (inactive)
GI50 (NCI-H522): 0.574 µM (active)
GI50 (UACC-257): > 100 µM (inactive)
GI50 (OVCAR-4): > 100 µM (inactive)
GI50 (NCI/ADR-RES): 1.18 µM (inactive)
GI50 (ACHN): 0.225 µM (active)
GI50 (HCT-116): 0.0352 µM (active)

CCCCCCCCCCCCCCCCOP(=O)(O)OP(=O)(O)OCC1OC(n2ccc(N)nc2=O)CC1O (stereo not drawn)
GI50 (SNB-19): > 100 µM (inactive)
GI50 (HCT-15): > 100 µM
GI50 (NCI-H23): > 100 µM (inactive)
GI50 (LOX IMVI): > 100 µM (inactive)
GI50 (CAKI-1): > 100 µM (inactive)
GI50 (SK-MEL-2): > 100 µM (inactive)
GI50 (RPMI-8226): > 100 µM (inactive)
GI50 (SN12C): > 100 µM (inactive)
GI50 (HCC 2998): > 100 µM (inactive)
GI50 (T47D): > 100 µM (inactive)
GI50 (OVCAR-8): > 100 µM (inactive)
GI50 (NCI-H522): > 100 µM (inactive)
GI50 (UACC-257): > 100 µM (inactive)
GI50 (OVCAR-4): > 100 µM (inactive)
GI50 (SK-OV-3): > 100 µM (inactive)
GI50 (MDA-MB-435): > 100 µM (inactive)
GI50 (NCI/ADR-RES): > 100 µM (inactive)
GI50 (ACHN): > 100 µM (inactive)
GI50 (HCT-116): > 100 µM (inactive)

CN(C)CCCNc1c2ccccc2[n+]([O-])c2ccccc12
GI50 (HCT-15): 41.4 µM
GI50 (NCI-H23): 45.7 µM (inactive)
GI50 (LOX IMVI): 31.2 µM (inactive)
GI50 (CAKI-1): 49.4 µM (inactive)
GI50 (SK-MEL-2): > 100 µM (inactive)
GI50 (RPMI-8226): 46.7 µM (inactive)
GI50 (SN12C): 46.1 µM (inactive)
GI50 (T47D): 78 µM (inactive)
GI50 (OVCAR-8): 41.9 µM (inactive)
GI50 (NCI-H522): 28.2 µM (inactive)
GI50 (UACC-257): 56.8 µM (inactive)
GI50 (OVCAR-4): 27.1 µM (inactive)
GI50 (SK-OV-3): 82.6 µM (inactive)
GI50 (MDA-MB-435): 50.8 µM (inactive)
GI50 (NCI/ADR-RES): > 100 µM (inactive)
GI50 (ACHN): 49.1 µM (inactive)
GI50 (HCT-116): 34 µM (inactive)
